Patent publication US20110053832A1, “NATURAL ANTIMICROBIAL COMPOSITION” (KRAFT FOODS GLOBAL BRANDS LLC, priority 2009, published 2011)

How the values were obtained:
[1] = tested on: Generic Yeast; assay: Inoculation (challenge) study in creamy salad dressing, generic yeast; assay type: cell-based; conditions: Experiments 1-4
[2] = tested on: Z. bailii; assay: Inoculation (challenge) study in creamy salad dressing, acid-tolerant yeast Z. bailii; assay type: cell-based, Zygosaccharomyces bailii; conditions: for inhibition of Z. bailii (in words): Experiments 1-4; for Treatment Performance Z. bailii LDIC (Log Difference in micro levels as compared to the Initial Count) / Treatment Performance Z. bailii LDPC (Log Difference in micro levels as compared to the Positive Control without treatment): creamy salad dressing emulsion; for Treatment Performance Z. bailii LDIC (Log Difference in micro levels as compared to the Initial Count): negative values represent a degree of inhibition; for Treatment Performance Z. bailii LDPC (Log Difference in micro levels as compared to the Positive Control without treatment): negative values represent degree of inhibition
Description: (§1) Turning now to the table, provided herein are formulations of a natural antimicrobial tested using a water continuous emulsion with a creamy texture and flavor, such as a creamy style salad dressing. It is noted that not only other types of water continuous emulsions, but also many other types of foods would also benefit from the antimicrobial nature of these formulations. As shown, the emulsion is standardized for a ratio of acid-to-moisture and salt-to-moisture values of a minimum of about 1.5 and about 4.8, respectively. When the emulsion was inoculated individually with cocktails of lactic acid bacteria, general yeast, or acid-tolerant yeast (such as Z. bailii) at approximately 4.0 logs, the emulsion spoils with microbial growth up to 7.0 logs. The overall pH of the present formulations can be anywhere from about 2.0 to about 6.0. Lower pH can often inhibit microbial growth, irrespective of other antimicrobial agents present. In the present formulations however, it was observed that the presence of antimicrobial agents such as cultured milks and/or organic acid salts were effective antimicrobial inhibitors, even at higher pH levels. High concentrations of undissociated organic acids can produce greater microbial inhibition. Increasing pH is associated with decreasing concentrations of undissociated acid. Thus, the microbial inhibition in a food that approaches a pH of 6.0 is unexpected.
(§2) The label LDPC indicates the Log Difference in micro levels as compared to the Positive Control without treatment (negative values represent degree of inhibition). The label LDIC indicates the Log Difference in micro levels as compared to the Initial Count or micro level of that treatment (negative values represent a degree of inhibition).
(§3) Two levels of Ca-Acetate alone and in combination with two levels of nisin and a nisin containing cultured ingredient were compared to determine their effect on typical spoilage (generic) yeast, the preservative resistant yeast, Z. bailii, and Lactobacillus.
(§4) Specifically, the samples were subjected to three different inocula (at log CFU 3-4) that contained microorganisms previously shown to spoil salad dressing. These included a cocktail of seven strains comprising various genera of yeast not known to be preservative resistant, a three strain cocktail of the preservative resistant Zygosaccharomyces bailii, and a three strain cocktail of Lactobacillus spp. (L. plantarum, L. fermentum, L. buchneri). The sample was then incubated at 22 degrees Celsius, and tested weekly for four weeks for the presence of these microorganisms.

[3] = tested on: Lactobacillus; assay: Inoculation (challenge) study in creamy salad dressing, Lactobacillus / lactic acid bacteria; assay type: cell-based, Lactobacillus spp. (L. plantarum, L. fermentum, L. buchneri); conditions: Experiments 1-4
[4] = tested on: Lactobacillus; assay: as above; assay type: cell-based, Lactobacillus spp. (L. plantarum, L. fermentum, L. buchneri); conditions: for Treatment Performance Lactobacillus LDIC (Log Difference in micro levels as compared to the Initial Count) / Treatment Performance Lactobacillus LDPC (Log Difference in micro levels as compared to the Positive Control without treatment): creamy salad dressing emulsion; for Treatment Performance Lactobacillus LDIC (Log Difference in micro levels as compared to the Initial Count): negative values represent a degree of inhibition; for Treatment Performance Lactobacillus LDPC (Log Difference in micro levels as compared to the Positive Control without treatment): negative values represent degree of inhibition
Description: as §1, §2, §3, §4

[5] = tested on: Generic Yeast; assay: Inoculation (challenge) study in creamy salad dressing, generic yeast; assay type: cell-based; conditions: creamy salad dressing emulsion; for Treatment Performance Generic Yeast LDIC (Log Difference in micro levels as compared to the Initial Count): negative values represent a degree of inhibition; for Treatment Performance Generic Yeast LDPC (Log Difference in micro levels as compared to the Positive Control without treatment): negative values represent degree of inhibition
Description: as §1, §2, §3, §4

[6] = listed as Three percent Na-Acetate
[7] = listed as three percent Ca-Acetate

Row | Molecule | Treatment Performance Z. bailii LDIC (Log Difference in micro levels as compared to the Initial Count) [2] [Log] | Treatment Performance Z. bailii LDPC (Log Difference in micro levels as compared to the Positive Control without treatment) [2] [Log] | Treatment Performance Lactobacillus LDIC (Log Difference in micro levels as compared to the Initial Count) [4] [Log] | Treatment Performance Lactobacillus LDPC (Log Difference in micro levels as compared to the Positive Control without treatment) [4] [Log] | Treatment Performance Generic Yeast LDIC (Log Difference in micro levels as compared to the Initial Count) [5] [Log] | Treatment Performance Generic Yeast LDPC (Log Difference in micro levels as compared to the Positive Control without treatment) [5] [Log] | also measured
1 | CC(=O)[O-].[Na+] [3% Na acetate, sodium (Na) acetate] | −0.5 | −2 | −3.5 | 0 | −3.5 | 0 | inhibition of general yeast (in words) ([1]; listed as 3 percent Na-Acetate): did not inhibit; inhibition of general yeast (in words) [1, 6]: inhibited all of the tested spoilage organisms; inhibition of Z. bailii (in words) ([2]; listed as 3 percent Na-Acetate): significant antimycotic inhibition; inhibition of Z. bailii (in words) [2, 6]: inhibited all of the tested spoilage organisms; Treatment Performance Z. bailii LDIC (Log Difference in micro levels as compared to the Initial Count) ([2]; listed as 3% Na Ac): −1 Log; Treatment Performance Z. bailii LDPC (Log Difference in micro levels as compared to the Positive Control without treatment) ([2]; listed as 3% Na Ac): −3 Log; inhibition of lactic acid bacteria / Lactobacillus (in words) ([3]; listed as 3 percent Na-Acetate): did not inhibit; inhibition of lactic acid bacteria / Lactobacillus (in words) [3, 6]: inhibited all of the tested spoilage organisms; Treatment Performance Generic Yeast LDIC (Log Difference in micro levels as compared to the Initial Count) ([5]; listed as 3% Na Ac): 1 Log; Treatment Performance Generic Yeast LDPC (Log Difference in micro levels as compared to the Positive Control without treatment) ([5]; listed as 3% Na Ac): −0.5 Log
2 | Nisin [Nisin (mid)] | 2 | 0 | −1 | −2.5 | 3.5 | 1.5 | –
3 | CC(=O)[O-].CC(=O)[O-].[Ca+2] [Ca acetate (mid), calcium (Ca) acetate] | 2 | 0.5 | −1.5 | −0.5 | −0.5 | −2.5 | inhibition of general yeast (in words) ([1]; listed as 1.5 percent Ca-Acetate): needed to inhibit
4 | CC(=O)[O-].CC(=O)[O-].[Ca+2] [3% Ca acetate, calcium (Ca) acetate] | 1.5 | 0.5 | −2.5 | −2.5 | −1 | −3 | inhibition of general yeast (in words) [1, 7]: inhibited the growth; inhibition of Z. bailii (in words) ([2]; listed as 3 percent Ca-Acetate): needed to inhibit; inhibition of Z. bailii (in words) [2, 7]: but not Z. bailii; Treatment Performance Z. bailii LDIC (Log Difference in micro levels as compared to the Initial Count) ([2]; listed as Ca acetate (high)): 0.5 Log; Treatment Performance Z. bailii LDPC (Log Difference in micro levels as compared to the Positive Control without treatment) ([2]; listed as Ca acetate (high)): −1.5 Log; inhibition of lactic acid bacteria / Lactobacillus (in words) ([4]; Experiments 1-4): inhibited the growth; Treatment Performance Lactobacillus LDIC (Log Difference in micro levels as compared to the Initial Count) ([4]; listed as Ca acetate (high)): 0.5 Log; Treatment Performance Lactobacillus LDPC (Log Difference in micro levels as compared to the Positive Control without treatment) ([4]; listed as Ca acetate (high)): 1.5 Log; Treatment Performance Generic Yeast LDIC (Log Difference in micro levels as compared to the Initial Count) ([5]; listed as Ca acetate (high)): −2 Log; Treatment Performance Generic Yeast LDPC (Log Difference in micro levels as compared to the Positive Control without treatment) ([5]; listed as Ca acetate (high)): −4 Log
5 | Nisin [Nisin (high)] | 2 | 0 | 0 | −2.5 | 3 | 1.5 | –
